Source: patent US11433099B2, “Immunotherapy with B*08 restricted peptides and combination of peptides against cancers and related methods” (Immatics Biotechnologies GmbH, priority 2018, dated 2022)

What was measured:
HLA-B*08:01 = HLA-B*08:01 (Homo sapiens, UniProt P01889); assay: MHC binding assay (UV-ligand exchange, beta2m ELISA); details: MHC class I binding score; binding to HLA-B*08:01 ranged by peptide exchange yield (UV-ligand exchange, β2m ELISA)
Outline: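 Peptide–HLA complexes generated by UV-ligand exchange of a UV-cleavable peptide for the test peptide; exchange yield read by β2m ELISA on streptavidin capture (samples diluted 100-fold, 1 h 37 °C), HRP anti-β2m, TMB, A450. Quantified against refolded HLA-A*02:01/MLA-001 monomer standards (15-500 ng/ml).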

[1] = test system: CD8+ T cells of healthy HLA-B*08 donors; assay: In vitro T-cell priming assay with aAPCs loaded with peptide/MHC complexes and anti-CD28 antibody, pMHC multimer readout; type: cell-based, human; details: in vitro immunogenicity
Excerpt: In order to obtain information regarding the immunogenicity of the TUMAPs of the present invention, the inventors performed investigations using an in vitro T-cell priming assay based on repeated stimulations of CD8+ T cells with artificial antigen presenting cells (aAPCs) loaded with peptide/MHC complexes and anti-CD28 antibody.
In order to perform in vitro stimulations by artificial antigen presenting cells loaded with peptide-MHC complex (pMHC) and anti-CD28 antibody, the inventors first isolated CD8+ T cells from fresh HLA-B*08 leukapheresis products via positive selection using CD8 microbeads (Miltenyi Biotec, Bergisch-Gladbach, Germany) of healthy donors obtained from the University clinics Mannheim, Germany, after informed consent.
PBMCs and isolated CD8+ lymphocytes were incubated in T-cell medium (TCM) until use consisting of RPMI-Glutamax (Invitrogen, Karlsruhe, Germany) supplemented with 10% heat inactivated human AB serum (PAN-Biotech, Aidenbach, Germany), 100 U/ml Penicillin/100 μg/ml Streptomycin (Cambrex, Cologne, Germany), 1 mM sodium pyruvate (CC Pro, Oberdorla, Germany), 20 μg/ml Gentamycin (Cambrex). 2.5 ng/ml IL-7 (PromoCell, Heidelberg, Germany) and 10 U/ml IL-2 (Novartis Pharma, Nornberg, Germany) were also added to the TCM at this step.
Generation of pMHC/anti-CD28 coated beads, T-cell stimulations and readout was performed in a highly defined in vitro system using four different pMHC molecules per stimulation condition and 8 different pMHC molecules per readout condition.
The purified co-stimulatory mouse IgG2a anti human CD28 Ab 9.3 (Jung et al., 1987) was chemically biotinylated using Sulfo-N-hydroxysuccinimidobiotin as recommended by the manufacturer (Perbio, Bonn, Germany). Beads used were 5.6 μm diameter streptavidin coated polystyrene particles (Bangs Laboratories, Illinois, USA).
800.000 beads/200 μl were coated in 96-well plates in the presence of 4×12.5 ng different biotin-pMHC, washed and 600 ng biotin anti-CD28 were added subsequently in a volume of 200 μl. Stimulations were initiated in 96-well plates by co-incubating 1×10^6 CD8+ T cells with 2×10^5 washed coated beads in 200 μl TCM supplemented with 5 ng/ml IL-12 (PromoCell) for 3 days at 37° C. Half of the medium was then exchanged by fresh TCM supplemented with 80 U/ml IL-2 and incubating was continued for 4 days at 37° C. This stimulation cycle was performed for a total of three times. For the pMHC multimer readout using 8 different pMHC molecules per condition, a two-dimensional combinatorial coding approach was used as previously described (Andersen et al., 2012) with minor modifications encompassing coupling to 5 different fluorochromes. Finally, multimeric analyses were performed by staining the cells with Live/dead near IR dye (Invitrogen, Karlsruhe, Germany), CD8-FITC antibody clone SK1 (BD, Heidelberg, Germany) and fluorescent pMHC multimers. For analysis, a BD LSRII SORP cytometer equipped with appropriate lasers and filters was used. Peptide specific cells were calculated as percentage of total CD8+ cells. Evaluation of multimeric analysis was done using the FlowJo software (Tree Star, Oregon, USA). In vitro priming of specific multimer+CD8+ lymphocytes was detected by comparing to negative control stimulations.

[2] = HLA class I peptides, Table 10B
[3] = Table 10A, HLA-B*08 pMHC, healthy donors

Row | Substance | Peptide exchange (HLA-B*08:01) | Wells positive [%] [1, 2] | Wells positive [%] [1, 3]
1 | 1 (ALKLKVAEL; listed as Homo sapiens) [compound 1] | ++ (20% = ++) | ++ (20%-49% = ++) | –
2 | 3 (SIQSRYISM; listed as Homo sapiens) [compound 3] | +++ (50% = +++) | ++ (20%-49% = ++) | –
3 | 5 (STMPKILAL; listed as Homo sapiens) [compound 5] | +++ (50% = +++) | + (<20% = +) | –
4 | 8 (FVRPKLVTI; listed as Homo sapiens) [compound 8] | +++ (50% = +++) | + (<20% = +) | –
5 | 9 (LLKGKPRAL; listed as Homo sapiens) [compound 9] | ++ (20% = ++) | + (<20% = +) | –
6 | 10 (MGKFKQCF; listed as Homo sapiens) [compound 10] | +++ (50% = +++) | ++++ (>=70% = ++++) | –
7 | 11 (MAPLKMLAL; listed as Homo sapiens) [compound 11] | +++ (50% = +++) | +++ (50%-69%= +++) | –
8 | 13 (EPFTRPVL; listed as Homo sapiens) [compound 13] | ++ (20% = ++) | + (<20% = +) | –
9 | 18 (LSLVRKAL; listed as Homo sapiens) [compound 18] | +++ (50% = +++) | ++ (20%-49% = ++) | –
10 | 19 (FTLLRRLSL; listed as Homo sapiens) [compound 19] | +++ (50% = +++) | ++++ (>=70% = ++++) | –
11 | 20 (ILKRFLAC; listed as Homo sapiens) [compound 20] | +++ (50% = +++) | + (<20% = +) | –
12 | 21 (RILKRFLAC; listed as Homo sapiens) [compound 21] | +++ (50% = +++) | + (<20% = +) | –
13 | 22 (EVRLKPIL; listed as Homo sapiens) [compound 22] | ++ (20% = ++) | + (<20% = +) | –
14 | 25 (HLHPKGREL; listed as Homo sapiens) [compound 25] | ++ (20% = ++) | ++ (20%-49% = ++) | –
15 | 29 (ELFLHPVL; listed as Homo sapiens) [compound 29] | ++ (20% = ++) | ++ (20%-49% = ++) | –
16 | 31 (SPRVKWTF; listed as Homo sapiens) [compound 31] | ++ (20% = ++) | ++++ (>=70% = ++++) | –
17 | 33 (WIGLRNLDL; listed as Homo sapiens) [compound 33] | +++ (50% = +++) | + (<20% = +) | –
18 | 34 (IYRKKYIL; listed as Homo sapiens) [compound 34] | ++ (20% = ++) | + (<20% = +) | –
19 | 35 (ELFQRPVL; listed as Homo sapiens) [compound 35] | ++ (20% = ++) | + (<20% = +) | –
20 | 36 (IVKIKVQEL; listed as Homo sapiens) [compound 36] | ++ (20% = ++) | ++ (20%-49% = ++) | –
21 | 37 (EAFSRASL; listed as Homo sapiens) [compound 37] | ++ (20% = ++) | ++ (20%-49% = ++) | –
22 | 38 (EVYQKIIL; listed as Homo sapiens) [compound 38] | +++ (50% = +++) | ++++ (>=70% = ++++) | –
23 | 40 (ESMLKTTL; listed as Homo sapiens) [compound 40] | ++ (20% = ++) | + (<20% = +) | –
24 | 41 (RGALRTLSL; listed as Homo sapiens) [compound 41] | ++ (20% = ++) | + (<20% = +) | –

Row | Substance | Peptide exchange (HLA-B*08:01) | Wells positive [%] [1, 2] | Wells positive [%] [1, 3]
25 | 42 (VLRRKTLL; listed as Homo sapiens) [compound 42] | ++ (20% = ++) | + (<20% = +) | –
26 | 45 (RLKVALSTL; listed as Homo sapiens) [compound 45] | +++ (50% = +++) | + (<20% = +) | –
27 | 47 (HSRVKLAQL; listed as Homo sapiens) [compound 47] | ++ (20% = ++) | ++ (20%-49% = ++) | –
28 | 48 (ELALRQTV; listed as Homo sapiens) [compound 48] | ++ (20% = ++) | + (<20% = +) | –
29 | 49 (FLRVFTDSL; listed as Homo sapiens) [compound 49] | +++ (50% = +++) | + (<20% = +) | –
30 | 57 (MPLKHYLL; listed as Homo sapiens) [compound 57] | ++ (20% = ++) | +++ (50%-69%= +++) | –
31 | 58 (LPKKMKLL; listed as Homo sapiens) [compound 58] | ++ (20% = ++) | ++ (20%-49% = ++) | –
32 | 60 (MLHIKKAEV; listed as Homo sapiens) [compound 60] | +++ (50% = +++) | + (<20% = +) | –
33 | 62 (FMLAKEASL; listed as Homo sapiens) [compound 62] | ++ (20% = ++) | + (<20% = +) | –
34 | 63 (YVKRKTNVL; listed as Homo sapiens) [compound 63] | ++ (20% = ++) | + (<20% = +) | –
35 | 66 (DLKKTRVL; listed as Homo sapiens) [compound 66] | ++ (20% = ++) | + (<20% = +) | –
36 | 68 (DLKIPRYPV; listed as Homo sapiens) [compound 68] | +++ (50% = +++) | +++ (50%-69%= +++) | –
37 | 71 (HIRIKHTF; listed as Homo sapiens) [compound 71] | +++ (50% = +++) | ++ (20%-49% = ++) | –
38 | 74 (RLKLRYEGL; listed as Homo sapiens) [compound 74] | +++ (50% = +++) | ++ (20%-49% = ++) | –
39 | 75 (YARLKNVLL; listed as Homo sapiens) [compound 75] | +++ (50% = +++) | +++ (50%-69%= +++) | –
40 | 76 (HPRLKVNLL; listed as Homo sapiens) [compound 76] | +++ (50% = +++) | + (<20% = +) | –
41 | 78 (DGHMKVFSL; listed as Homo sapiens) [compound 78] | ++ (20% = ++) | ++ (20%-49% = ++) | –
42 | 80 (EVYLRMYQL; listed as Homo sapiens) [compound 80] | +++ (50% = +++) | +++ (50%-69%= +++) | –
43 | 82 (SIRKRPML; listed as Homo sapiens) [compound 82] | ++ (20% = ++) | + (<20% = +) | –
44 | 278 (RAQLKLVAL; listed as Homo sapiens) [compound 278] | – | – | + (<20% = +)
45 | 283 (MAQFKEISL; listed as Homo sapiens) [compound 283] | – | – | ++++ (>=70% = ++++)
46 | 284 (ELKKKEYEEL; listed as Homo sapiens) [compound 284] | – | – | + (<20% = +)
47 | 285 (EAMLRNKEL; listed as Homo sapiens) [compound 285] | – | – | + (<20% = +)
48 | 286 (ILLPRTVSL; listed as Homo sapiens) [compound 286] | – | – | + (<20% = +)
